The values below are quoted from earlier work in patent publication US11692003B2, “Mithramycin derivatives having increased selectivity and anti-cancer activity” (University of Kentucky Research Foundation, priority 2018, dated 2023).

In this data set the test system is several cancer cell lines.

For `CO[C@H](C(O)C(C)=O)[C@@H]1Cc2cc3cc(OC4C[C@@H](OC5C[C@@H](O)[C@H](O)C(C)O5)[C@H](O)C(C)O4)c(C)c(O)c3c(O)c2C(=O)[C@H]1OC1C[C@@H](OC2C[C@@H](OC3C[C@](C)(O)[C@H](O)C(C)O3)[C@@H](O)C(C)O2)[C@H](O)C(C)O1` (some centres unmarked) [MTM SK, Mithramycin SK], the “activity against several cancer cell lines compared to the parent MTM” value was “increased activity”.
For the compound `CO[C@H](C(=O)C(C)=O)[C@@H]1Cc2cc3cc(OC4C[C@@H](OC5C[C@@H](O)[C@H](O)C(C)O5)[C@H](O)C(C)O4)c(C)c(O)c3c(O)c2C(=O)[C@H]1OC1C[C@@H](OC2C[C@@H](OC3C[C@](C)(O)[C@H](O)C(C)O3)[C@@H](O)C(C)O2)[C@H](O)C(C)O1` (some centres unmarked) [MTM SDK, mithramycin SDK], the “activity against several cancer cell lines compared to the parent MTM” value was “increased activity”.
